TGI and GI50 data for 25 compounds are collected here from PubChem BioAssay (NCI).

“And” between values parts separate entries of the source, which are not always exact repeats. Equal values may be shown once.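 These data come from cells grown in 96-well plates and exposed to compound for 48 hours at five concentrations. GI50 marks 50% less growth. TGI: concentration producing complete growth inhibition.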 Some results are limits rather than exact numbers.

Holding throughout (assay): NCI anticancer screen, dose series, 48 h
In assay [1] the test system is SK-MEL-2 melanoma.
In assay [2] the test system is KM12 colon.
The subject of assay [3] is OVCAR-5 ovarian.
Assay [4] relates to K-562 leukemia.
In assay [5] the test system is HOP-62 NSCLC.
Assay [6] deals with CAKI-1 renal.
For assay [7], the system named is SW-620 colon.
In assay [8] the test system is HCT-116 colon.

Consider `O=c1[nH]cc(C(F)(C(F)(F)F)C(F)(F)F)c(=O)[nH]1`, for which the TGI in assay [1], in assay [2], in assay [3], in assay [4], in assay [5] and in assay [6] was above 100 µM in each case. Moreover, the TGI in assay [7] and in assay [8] was above 100 µM in each case.
As to `COc1ccc(C)cc1C1CCC(=O)O1` (stereo unspecified), the TGI in assay [1], in assay [2], in assay [3], in assay [4], in assay [5] and in assay [7] was above 100 µM throughout. In assay [8], this compound registered a TGI above 100 µM.
`COc1cc(C(C#N)NNc2nc(C)cc(=O)[nH]2)cc(OC)c1OC` (stereo unspecified): the TGI in assay [1], in assay [2], in assay [3], in assay [4], in assay [5] and in assay [6] was above 100 µM each time. Further, the TGI in assay [7] and in assay [8] was above 100 µM each time.
Take `CC(C)N1C(C)[C@@H](c2ccccc2)O[P@]1(=O)CC1=CCCCC1` (stereo partly specified): the TGI in assay [1], in assay [2], in assay [3], in assay [4], in assay [5] and in assay [7] was above 100 µM in each case. Also, the TGI in assay [8] was above 100 µM.
For `C/C(=N\NS(=O)(=O)c1ccc([N+](=O)[O-])cc1)c1ccc[n+]([O-])n1`, the TGI in assay [1] was 3.84 µM; in assay [2] it was 33.8 µM; in assay [3], 6.1 µM; in assay [4], above 65.4 µM; in assay [5] it was 4.7 µM; in assay [6], 6.99 µM. Further, the TGI in assay [7] turned out to be 7.99 µM; in assay [8], 3.9 µM.
As for `CCCCCCCCCCCCCCCCCC(=O)NCC(COP(=O)(O)O)OCC` (stereo unspecified), the TGI in assay [1] is above 100 µM; in assay [2], 58.3 µM; in assay [4] it was above 100 µM; in assay [5], 54.5 µM; in assay [6] it was above 100 µM; in assay [7] it was above 100 µM. The same compound showed a TGI in assay [8] above 100 µM.
Turning to `COc1ccc(NC(=O)C2C(=O)N(c3ccc(OC)cc3)C(=O)/C2=N\NC(N)=O)cc1` (stereo unspecified), the TGI in assay [1] is above 100 µM; in assay [2] it was 43.2 µM; in assay [3] it was above 100 µM; in assay [4], above 100 µM; in assay [5], 32.9 µM; in assay [6], above 100 µM. Also, the TGI in assay [7] was above 100 µM; in assay [8], 46.8 µM.
For the compound `c1ccc(-c2ccnc3c2ccc2c(-c4ccccc4)ccnc23)cc1`, the TGI stood at 11.4 µM in assay [1]; 10.2 µM in assay [2]; 11.8 µM in assay [3]; 11.4 µM in assay [4]; 7.86 µM in assay [5]; 15 µM in assay [7]. The TGI in assay [8] was 10.4 µM.
In the case of `Cc1noc(/N=C2\C=C(Nc3onc(C)c3C)C(=O)c3ccccc32)c1C`, the TGI in assay [1], in assay [2], in assay [3], in assay [4], in assay [5] and in assay [6] was above 100 µM each time. Further, the TGI in assay [7] and in assay [8] was above 100 µM throughout.
For `COC(=O)C(C(=O)C(N)=O)c1csc(-n2nc(-c3ccccc3)cc2-c2ccccc2)n1` (stereo unspecified), the TGI in assay [1] is above 31.6 µM; in assay [2] it was above 31.6 µM; in assay [3] it was above 100 µM; in assay [4] it was above 31.6 µM; in assay [6], 15.5 µM; in assay [7], 6.02 µM. This compound returned a TGI in assay [8] above 31.6 µM.
As to `S=c1c2ccccc2c(=S)n2n1CC=CC2`, the TGI in assay [1], in assay [2], in assay [3], in assay [4], in assay [6] and in assay [7] was above 100 µM throughout. Further, the TGI in assay [8] was above 100 µM.
For the compound `c1ccc(-c2nnc3nn4c(-c5ccccc5)cnnc4c3c2-c2ccccc2)cc1`, the TGI in assay [1] is above 100 µM; in assay [2], above 100 µM; in assay [3], above 100 µM; in assay [4], above 100 µM; in assay [6], 45.6 µM; in assay [7], above 100 µM. In assay [8], the TGI is above 100 µM.
Consider `COc1ccc2c([nH]c3c(O)c(-c4c(C)cc5c([nH]c6c(CC=C(C)C)c(OC)ccc65)c4O)c(C)cc32)c1CC=C(C)C`, for which the TGI in assay [1], in assay [2], in assay [3], in assay [4], in assay [5] and in assay [6] was above 100 µM each time. Further, the TGI in assay [7] and in assay [8] was above 100 µM in each case.
Take `Cc1c2ccncc2c(C)c2c1[nH]c1ccc(Cl)cc12`: the TGI in assay [1] is 7.17 µM and 10.9 µM; in assay [2], 5.7 µM and 18.9 µM; in assay [3], 16.6 µM and 16.3 µM; in assay [4], 3.67 µM and 3.79 µM; in assay [5] it was 13.9 µM and 9.86 µM; in assay [7], 9.35 µM and 2.6 µM. Also, in assay [8], the TGI is 2.98 µM and 5.14 µM. For the same compound, the GI50 in assay [2] is 4.25 µM; in assay [3], 4.32 µM; in assay [4], 1.21 µM; in assay [5], 2.66 µM; in assay [6], 0.602 µM and 5.24 µM; in assay [7], 1.04 µM.
In the case of `C#CCOCn1cnc2ncnc(N)c21`, the TGI in assay [1], in assay [2], in assay [3], in assay [4], in assay [5] and in assay [6] was above 100 µM throughout. Moreover, the TGI in assay [7] and in assay [8] was above 100 µM throughout.
As to `Cc1ccc(/C=N/NS(=O)(=O)c2ccccc2)c(C)c1`, the TGI in assay [1], in assay [2], in assay [3], in assay [4], in assay [5] and in assay [6] was above 100 µM each time. The TGI in assay [7] and in assay [8] was above 100 µM each time.
For `CC(=O)c1c2c(cc3c1CC1(C3)Cc3cc4c(c(C(=O)O)c3C1)CCC4)CCC2` (stereo unspecified), the TGI in assay [2] is above 100 µM; in assay [3], above 100 µM; in assay [4], 97.8 µM; in assay [5], above 100 µM; in assay [6], above 100 µM; in assay [7], above 100 µM. In assay [8], this compound registered a TGI of 67.8 µM.
For the compound `COc1ccc2c(c1)c1c3n2CCNN=C3CCC1`, the TGI in assay [1], in assay [2], in assay [3], in assay [4], in assay [5] and in assay [6] was above 100 µM throughout. Besides, the TGI in assay [7] and in assay [8] was above 100 µM in each case.
Consider `O=CCCCC(Sc1ccccc1)Sc1ccccc1`, for which the TGI in assay [1] is 42.7 µM; in assay [2] it was above 100 µM; in assay [4], 76.6 µM; in assay [5], above 100 µM; in assay [6] it was above 100 µM; in assay [7], 23.6 µM. In addition, the TGI in assay [8] worked out at 28.4 µM.
Consider `O=c1c2ccccc2nc(-c2ccccc2)n1NC(=S)Nc1cccc(Cl)c1`, for which the TGI in assay [1], in assay [2], in assay [3], in assay [4], in assay [5] and in assay [6] was above 100 µM throughout. Besides, the TGI in assay [7] and in assay [8] was above 100 µM in each case.
With `O=C1C=Cc2ncccc2C1=O`, the TGI in assay [1] was 39.2 µM; in assay [2], above 58.5 µM; in assay [3], above 58 µM; in assay [4], 26.4 µM; in assay [5], above 82.9 µM; in assay [6], 48.9 µM. For the same compound, the TGI in assay [7] and in assay [8] was 31.1 µM in each case.
For the compound `CC(=O)Nc1ccc(-c2nnc(SCC(=O)Nc3ccc(Cl)cc3)o2)cc1`, the TGI was 49 µM in assay [1]; 29 µM in assay [2]; 31.6 µM in assay [3]; above 100 µM in assay [4]; 39.7 µM in assay [5]; 33.7 µM in assay [6]. Also, the TGI amounted to 29.8 µM in assay [7] and 20.2 µM in assay [8].
In the case of `CC(=O)OC(=O)O/C=C\CCl`, the TGI in assay [1], in assay [2], in assay [4], in assay [5], in assay [6] and in assay [7] was above 100 µM each time. Further, in assay [8], the TGI was above 100 µM.
With `O=S1(=O)c2ccccc2N=C(c2ccccc2Cl)CC1c1ccc(F)cc1` (stereo unspecified), the TGI in assay [1] was 35.9 µM; in assay [2], 31.8 µM; in assay [3], 30.7 µM; in assay [4] it was 34.6 µM; in assay [6], 34.3 µM; in assay [7], 31.5 µM. In assay [8], this compound yielded a TGI of 22.9 µM.
On to `Cn1nc(-c2ccccc2)c(C(=O)/C=C/c2ccc(Cl)cc2)c(N2CCCC2)c1=O`, for which the TGI in assay [4] was found to be 9.06 µM; in assay [5] it was 6.93 µM; in assay [6], 22.2 µM; in assay [7] it was 21.9 µM; in assay [8] it was 8.11 µM.
